The values below come from EP2735563A1, “Meta substituted 2-[phenoxy-phenyl]-1-[1,2,4]triazol-1-yl-ethanol compounds and their use as fungicides” (BASF SE, priority 2012, dated 2014).

Common to all, as to type: cell-based
Common to all, as to conditions: relative growth vs active compound-free control (100%), absorption at 405 nm 7 days after inoculation, 18°C

Assay [1] relates to Pyricularia oryzae.
Assay [2] concerns Septoria tritici. The assay can be described thus: Activity against leaf blotch on wheat caused by Septoria tritici (Septtr), microtiter plate test.
Assay [3] deals with Botrytis cinerea. The assay can be described thus: Activity against the grey mold Botrytis cinerea in the microtiterplate test (Botrci).

Structures are written as SMILES.

Consider `CC(O)(Cn1cncn1)c1ccc(Oc2ccc(Cl)cc2)c(C(F)(F)F)c1` (centres unmarked) [Compound I-5], for which the “Growth (%) at 31 ppm Pyrior” value in assay [1] came out at 0%. The “Growth (%) at 31 ppm Septtr” value in assay [2] is recorded as 14%.

Regarding `OC(Cn1cncn1)c1ccc(Oc2ccc(Cl)cc2)c(Cl)c1` (centres unmarked) [Compound I-2, 1-[3-Chloro-4-(4-chlorophenoxy)phenyl]-2-(1,2,4-triazol-1-yl)ethanol], the “Growth (%) at 31 ppm Botrci” value in assay [3] was found to be 13%. The “Growth (%) at 31 ppm Pyrior” value in assay [1] turned out to be 1%.

Regarding `COC(C)(Cn1cncn1)c1ccc(Oc2ccc(Cl)cc2)c(Cl)c1` (centres unmarked) [Compound I-3, 1-[2-[3-chloro-4-(4-chlorophenoxy)phenyl]-2-methoxy-propyl]-1,2,4-triazole], in assay [1], the “Growth (%) at 31 ppm Pyrior” value came to 0%.

Take `COC(C)(Cn1cncn1)c1ccc(Oc2ccc(Cl)cc2)c(C(F)(F)F)c1` (centres unmarked) [Compound I-6]: the “Growth (%) at 31 ppm Pyrior” value in assay [1] is given as 0%.

As to `CC(O)(Cn1cncn1)c1ccc(Oc2ccc(Cl)cc2)c(Cl)c1` (centres unmarked) [Compound I-4, 2-[3-chloro-4-(4-chlorophenoxy)phenyl]-1-(1,2,4-triazol-1-yl)propan-2-ol], the “Growth (%) at 31 ppm Botrci” value in assay [3] is given as 17%. Moreover, in assay [1], the “Growth (%) at 31 ppm Pyrior” value is recorded as 0%.
